Measured values as given in PMC10011554, “BET inhibitor trotabresib in heavily pretreated patients with solid tumors and diffuse large B-cell lymphomas” (Nature Communications, 2023).
Read-outs that look alike come from different tables or passages of the source.

Key:
[1] = Prediction of human PK and exposure by allometric scaling; HED calculation
Excerpt: Protocol CC- 90010- ST-001 Celgene Corporation
Figure 3: CC- 90010- mediated Tumor Growth Inhibition of GBM3 (Glioblastoma Multiforme Patient-derived Xenograft) with and without Temozolomide […]
BID = twice daily; IP = investigational product (CC-90010); PO = by mouth; QD = once daily; SEM = standard […]
Source: Unpublished data from Celgene Corporation.
1.2.2. Nonclinical Pharmacokinetics and Drug Metabolism
In vitro and in vivo studies have been conducted to characterize the absorption, PK, distribution, metabolism and elimination of CC-90010. Robust and reproducible bioanalytical methods for the quantitation of CC-90010 levels were developed and used in PK and toxicokinetic studies.
Human PK parameters and exposures were predicted using allometric scaling.
Pharmacokinetics and oral bioavailability of CC-90010 were evaluated in Sprague-Dawley rats […]
clearance than females. […]
The metabolism of CC-90010 was evaluated in vitro using hepatocytes from various species (mouse, rat, rabbit, dog, monkey, and human). […]
Based on the doses and exposures at which the principal treatment-related effects occurred in the GLP-compliant, 4-week rat and dog studies, both species are considered of similar sensitivity to the toxicities associated with CC-90010 administration. […] This CC-90010 dose was calculated using the approach described in the ICH S9 Guideline entitled “Nonclinical Evaluation for […]

[2] = Biopharmaceutic and physicochemical profile
OCI-LY-3 (ABC DLBCL) = test system: OCI-LY-3 (ABC DLBCL); parameters: method as in Report CC-90010-Pharm-1018; conditions: OCI-LY-3, Experiment 1, ref Report CC-90010-Pharm-1018; read-out: absolute IC50, proliferation; cited from earlier work
[3] = test system: COH71 TNBC PDX-derived model; parameters: method as in Investigator's Brochure; conditions: COH71, ref Investigator's Brochure; read-out: IC50, colony formation; cited from earlier work
[4] = parameters: method as in Unpublished data from Celgene Corporation; conditions: COH70 study, ref Unpublished data from Celgene Corporation; cited from earlier work
[5] = parameters: method as in Investigator's Brochure; conditions: ref Investigator's Brochure, cited from earlier work
[6] = parameters: method as in Investigator's Brochure; conditions: dogs, ref Investigator's Brochure, cited from earlier work
CYP2C9 = test system: CYP2C9; parameters: method as in Investigator's Brochure; conditions: CYP2C9, ref Investigator's Brochure; read-out: IC50, direct inhibition; cited from earlier work
CYP2D6 = test system: CYP2D6; parameters: method as in Investigator's Brochure; conditions: CYP2D6, ref Investigator's Brochure; read-out: IC50, direct inhibition; cited from earlier work
[7] = test system: CYP1A2, CYP2A6, CYP2B6, CYP2E1 and CYP3A4/5; parameters: method as in Investigator's Brochure; conditions: CYP1A2, CYP2A6, CYP2B6, CYP2E1 and CYP3A4/5, ref Investigator's Brochure; cited from earlier work
OATP1B1 = test system: OATP1B1; parameters: method as in Investigator's Brochure; conditions: OATP1B1, ref Investigator's Brochure; read-out: IC50, transporter inhibition; cited from earlier work
OCT2 = test system: OCT2; parameters: method as in Investigator's Brochure; conditions: OCT2, ref Investigator's Brochure; read-out: IC50, transporter inhibition; cited from earlier work
OAT1 = test system: OAT1; parameters: method as in Investigator's Brochure; conditions: OAT1, 30 µM, ref Investigator's Brochure; cited from earlier work
P-gp = test system: P-gp; parameters: method as in Investigator's Brochure; conditions: ref Investigator's Brochure; cited from earlier work

Cn1cc(-c2cc(S(C)(=O)=O)ccc2OCC2CC2)c2ccccc2c1=O [trotabresib]
HED ([1]; from dog HNSTD): 2.1 mg base/kg
HED ([1]; from rat STD10): 3.2 mg base/kg
ionization [2]: non-ionizable
Biopharmaceutics Classification System (BCS) behavior ([2]; data on file): Category II like
IC50 (OCI-LY-3 (ABC DLBCL)): 510 nM
IC50 [3]: 180 ± 20 nM
daily dose up to which well tolerated [4]: 25 mg/kg
accumulation after repeat dosing ([5]; rats, toxicokinetics): no accumulation in rats
clearance in male vs female rats [5]: approximately 2 fold
mean oral bioavailability [6]: 76%
accumulation after repeat dosing ([6]; toxicokinetics): up to 3 fold
IC50 (CYP2C9): ≥ 13.9 µM
IC50 (CYP2D6): ≥ 13.9 µM
direct inhibitory effect [7]: little to no direct inhibitory effect
IC50 (OATP1B1): 4.94 µM
IC50 (OCT2): 8.24 µM
inhibition of mediated transport (OAT1): 45.6%
transporter substrate status (P-gp): substrate of P-gp
